Consider two compounds from publication PMC10744608, “Simplified Synthesis of Renieramycin T Derivatives to Target Cancer Stem Cells via β-Catenin Proteasomal Degradation in Human Lung Cancer” (Marine Drugs, 2023).

The test system of experiment [1] is human dermal papilla cells (DP). As to the kind of experiment: MTT cell viability assay, normal cells. The class given is cell-based. The conditions noted are these: for IC50: DP normal cells, 24 h treatment, MTT. A general note: Tetrazolium dyes change colour on reduction, which living cells bring about.
Experiment [2] concerns A549 cells. As to the kind of experiment: Colony formation assay. The format is cell-based, human. The conditions noted are these: A549, 25 nM, 24 h treatment then 7 days growth. The procedure:
(§1) A clonogenic or colony formation assay was utilized to explore the capability of cancer cells to proliferate from single cells and form tumor colonies in response to DH_32 treatment. A single-cell suspension of NSCLC cells (A549, H23, and H292) was seeded at a density of 250 cells per well in a 6-well plate and permitted to adhere for 12 h. The cells were treated to different concentrations of DH_32 (0, 25, 50, and 100 nM) for a duration of 24 h. Subsequently, the medium containing the drug was aspirated, and fresh complete medium was introduced. The colonies were cultured for a period of 7 days, with the medium being renewed every 2 days. The colonies were washed with PBS, followed by fixation using a solution of methanol and acetic acid (3:1 v/v) for 5 min. Subsequently, they were stained with crystal violet (0.05% w/v in 4% paraformaldehyde) for 30 min. The excess crystal violet stain was washed away with distilled water until a clear background was obtained, and the samples were left to air-dry at room temperature. The colonies were photographed, and the captured images were analyzed using ImageJ software to determine the count of stained colonies. In this experiment, RT served as the positive control.

The subject of experiment [3] is H23 cells. Nature of the experiment: Colony formation assay. The format is cell-based, human. The conditions noted are these: H23, 25 nM, 24 h treatment then 7 days growth. How it is done:
as §1

In experiment [4] the test system is H292 cells. As to the kind of experiment: Colony formation assay. The class given is cell-based, human. The conditions noted are these: H292, 25 nM, 24 h treatment then 7 days growth. How it is done:
as §1

Experiment [5] deals with β-catenin in A549, H292, and H23 cells. Nature of the experiment: Immunofluorescence of β-catenin. The conditions noted are these: 24 h; DH_32 0–100 nM, RT 25 nM. The format is cell-based, human. The procedure: (§2) A549, H23, and H292 NSCLC cells were seeded at a concentration of 1 × 10^4 cells per well in 96-well plates. The cells were exposed to different concentrations of DH_32 (0, 25, 50, and 100 nM) for 24 h, after which the medium was removed. Following that, the cells were subjected to fixation with 4% paraformaldehyde for 15 min. The cells were permeabilization with 0.5% Triton-X for 5 min, followed by the blocking of non-specific proteins with 10% FBS in 0.1% Triton-X PBS for 1 h at room temperature. The cells were exposed to a 1:400 dilution of primary antibodies (CD133, CD44, ALDH1A1, OCT4, NANOG, SOX2, and β-catenin) and incubated at 4 °C overnight. On the subsequent day, the cells were treated with a 1:500 dilution of the following secondary antibodies: Alexa Fluor 594-conjugated goat anti-rabbit IgG (H+L) (Invitrogen) and Alexa Fluor 488-conjugated goat anti-mouse IgG (H+L) (Invitrogen). Simultaneously, the localization of nuclei was stained with Hoechst 33342 for 1 h at room temperature. The cells were rinsed with PBS and then covered with 50% glycerol. The images were captured by a fluorescence microscope (Olympus IX 51 with DP70; Olympus America Inc., Center valley, PA, USA). The fluorescence intensity was measured by Image J software. RT acted as the positive control for this experiment.

For experiment [6], the system named is A549, H23, and H292 cells. Nature of the experiment: Immunofluorescence of stem cell markers and transcription factors. The following applies: A549, H23, and H292, 50 nM, 24 h. The class given is cell-based, human. The procedure: as §2
For experiment [7], the system named is β-catenin in A549, H23, and H292 cells. Nature of the experiment: Western blot of β-catenin. The class given is cell-based, human. The following applies: 0–100 nM, 24 h. How it is done: The protein expression levels in NSCLC cells were assessed through Western blot analysis. A549, H23, and H292 cells were seeded at a density of 4 × 10^5 cells per well in 6-well cell culture plates. These cells were subjected to treatments with DH_32 at concentrations of 0, 25, 50, and 100 nM for 24 h at 37 °C.
Following treatment, the cells were collected using cold PBS and incubated on ice with a lysis buffer. The lysis buffer contained 50 mM 4-(2-hydroxyethyl)-1-piperazineethanesulfonic acid (pH 7.5), 150 mM NaCl, 5 mM EDTA, 1% Triton X-100, 1 mM phenylmethylsufonyl fluoride, and 2 μg/mL pepstatin A (cat no: 9803, Cell Signaling), along with complete protease inhibitor cocktail tablets provided in EASYpack (Roche, cat no: 04693116001). The incubation occurred for 40 min on ice, followed by centrifugation at 12,000× g at 4 °C for 15 min. Cell lysates were collected, and the protein content was quantified using the bicinchoninic acid (BCA) protein kit from Thermo-Fisher Scientific, Rockford, IL, USA. […] A chemiluminescent substrate (Supersignal West Pico; Pierce, Rockford, IL, USA) was applied to detect complex reactivity, and the signal intensity was quantified through densitometry. Protein intensity was analyzed by using ImageJ software (Image J 1.52a, Rasband, W., National Institutes of Health, Bethesda, MD, USA). […]
On the technique in general: Immunoblotting shows a protein as a band on a membrane.

Molecules are shown by their SMILES.

As a reminder, the IC50 is the point on the concentration scale where inhibition reaches its midpoint. Higher therefore signals a need for much substance. As a reminder, the inhibition is how much of the control response was suppressed.

With `CC=C(C)C(=O)OCC1c2c(c(O)c(C)c3c2OCO3)CC2C3C4=C(CC(C(C#N)N12)N3C)C(=O)C(C)=C(OC)C4=O` (stereo not shown) [RT, Renieramycin T], 13.7 ± 0.33 µM corresponded to half-maximal inhibition in experiment [1] (IC50). Moreover, the “colony formation inhibition rate” value in experiment [2] is given as 72.58 ± 0.07%; in experiment [3], 58.75 ± 0.01%; in experiment [4] it was 32.22 ± 0.05%. Moreover, the “β-catenin level by immunofluorescence” value in experiment [5] is “unaltered level of β-catenin”.
With `COC1=C(C)C(=O)C2=C(C1=O)[C@@H]1CN(Cc3ccc4ccccc4c3)[C@@H](C#N)[C@H](C2)N1C` [DH_32, (1R,4R,5S)-9-methoxy-8,11-dimethyl-3-(naphthalen-2-ylmethyl)-7,10-dioxo-1,2,3,4,5,6,7,10-octahydro-1,5-epiminobenzo[d]azocine-4-carbonitrile], the “selectivity index (SI)” value came out at 8.42 in experiment [1] (DP cells versus A549), 16.51 in experiment [1] (DP cells versus H23) and 23.40 in experiment [1] (DP cells versus H292). This compound had an IC50 in experiment [1] (Homo sapiens, Human dermal papilla cell) of 34.2 ± 1.22 µM. The inhibition at 0.025 µM was 90.83 ± 0.1% in experiment [2] (Homo sapiens, read-out: colony formation inhibition rate); 78.49 ± 0.08% in experiment [3] (Homo sapiens, NCI-H23, read-out: colony formation inhibition rate); 79.74 ± 0.14% in experiment [4] (Homo sapiens, NCI-H292, read-out: colony formation inhibition rate). The “fluorescence signals of stem cell markers CD133, CD44, and ALDH1A1” value in experiment [6] is reported as “approximately 0.5 fold”. Further, the “fluorescence signals of stem cell transcription factors OCT4, NANOG, and SOX2” value in experiment [6] is “approximately 0.5 fold”. Further, the “β-catenin level by immunofluorescence” value in experiment [5] is “decrease in the fluorescence signal of β-catenin”. In addition, the “β-catenin protein level by Western blot” value in experiment [7] was “significant decrease in the β-catenin protein level”.
